“Also recorded” adds a separate entry of the source.
Tests used:
DDX3 = experiment: ICD-Helicase luciferase reporter assay (Rac1-FLuc / DvL2-FLuc reporter plasmids) in 293T cells; assay type: cell-based, human; settings: for luciferase (luminescent) signals of Rac1-FLuc or DvL2-FLuc reporter cells: 293T cells transfected with Rac1-FLuc or DvL2-FLuc reporter plasmids, RK-33 0.5 to 2 μM vs vehicle (DMSO), cycloheximide as inhibitory control
Description: A total of 1.2×10^5 sgCTL or sgDDX3X reporter cells (Rac1-FLuc or DvL2-FLuc) were seeded into wells of a 24-well plate to allow cells to adhere for 24 h. Cells were pre-treated with increasing concentrations of a non-specific DDX3 inhibitor, RK-33 (0.5 μM, 1 μM, or 2 μM) for 3 h before transiently expressing the reporter plasmids into sgCTL and sgDDX3X cells for 16 h. Half of the cells were lysed in 1× cell culture lysis buffer (Promega #E1500) and bioluminescence was measured on a white bottom 96-well plate using luciferase assay system (Promega #E4030) by performing 2 sec measurement delay followed by a 10 sec measurement read. The remaining half of the cells were processed on flow-cytometry to determine the percentage of AcGFP^+ cells, to account for variation in transfection efficiency. […] Cycloheximide was used as a positive control for translational inhibition. Data represent three independent experiments and values in the bars are mean±SEM. *, p<0.05; ****, p<0.0001; ns, non-significant.
Cell transfection: 293T cells were seeded in 12 well plate (1.5×10^5 cells per well) a day prior to transfection. Cells were transfected with 1 μg of plasmids using Lipofectamine 2000 (ThermoFisher Scientific #11668019) as per manufacturer's recommendations.
Luciferase assay: Cells were lysed in luciferase cell culture lysis buffer (Promega #E1500) before measuring bioluminescence in a clear bottom 96-well plate using luciferase assay system (Promega #E4030) as per manufacturer's instructions. Relative luciferase activity was determined by subtracting luminescence values to blank and normalizing to untreated samples. Cycloheximide (Sigma #01810) was used as a positive control for translation inhibition at 1 μg/mL and RK-33 (Selleck #S8246) was used as a positive control for chemical inhibition of DDX3 at 3 μM.
The helicase function of the DDX3X and DDX3Y proteins regulates mRNA translation by unwinding of the complex 5′ untranslated region (5′-UTR) secondary structure. Two unique 5′-UTR structures were designed, Rac1 5′-UTR and DvL2 5′-UTR (i.e. short DVL2), known to be regulated by DDX3X and DDX3Y. The 5′-UTR segments were placed upstream of the luciferase gene (from the firefly Photinus pyralis) driven by a constitutively active human cytomegalovirus promoter (FIG. 1A-E). Luciferase emits bioluminescence signals proportional to its levels of expression, which served as a readout for helicase unwinding activity in ICD-Helicase assays. The reporter plasmids (Rac1-Fluc or DvL2-Fluc) were then transiently transfected into 293T cells. A transfection efficiency of more than 80% was obtained in all the experiments (FIG. 2). The selection of this cell line was for three main reasons. […] Second, 293T cells can tolerate knock-out (KO) or nearly complete knock-down of DDX3X expression. […]

293T cells [1] = experiment: MTS-based viability assay of reporter cells; assay type: cell-based; settings: 293T reporter cells (sgCTL and sgDDX3X); RK-33 0.5, 1 or 2 μM; normalized against vehicle (DMSO)
Description: (§1) Staurosporine (STS) was used as a positive kill control. […] Cells were treated with STS as a kill control. Bar chart represents mean±SEM of 3 independent experiments.

293T cells [2] = experiment: Annexin V-FITC apoptosis/cell death assay; assay type: cell-based, human; settings: RK-33 treatment
Description: as §1

Molecule | luciferase (luminescent) signals of Rac1-FLuc or DvL2-FLuc reporter cells (DDX3) | luciferase activity (DDX3; sgCTL 293T cells with normal endogenous DDX3, RK-33 0.5, 1 or 2 μM, 3 h pre-treatment) | luciferase activity (response to inhibitor) (DDX3; sgDDX3X (DDX3X knock-out) 293T cells expressing Rac1-FLuc or DvL2-FLuc construct, RK-33 0.5, 1 or 2 μM) | cell viability (293T cells [1]) | induction of apoptosis/cell death (293T cells [2])
RK-33 | significantly inhibited; also recorded: dose-dependently inhibited | dose-dependent reduction in luciferase activity | did not respond | no major change in cell viability | no major change in cell viability or induction of apoptosis/cell death
C[C@@H]1C[C@@H]([C@H](O)CC2CC(=O)NC(=O)C2)C(=O)[C@@H](C)C1 [cycloheximide] | significantly inhibited | – | – | – | –

— patent publication US20250207173A1, “REPORTER CELL FOR ASSESSING DDX3 HELICASE ACTIVITY” (Nanyang Technological University, priority 2023, published 2025)
